From US10732172B1, “Methods, systems, and compositions for determining blood clot formation, and uses thereof” (President and Fellows of Harvard College, priority 2015, dated 2020)
Entries after “also recorded” stand apart in the source; their conditions may differ.

Legend:
HUVECs = assay: Immunostaining of TNF-α stimulated endothelium in microchannel; type: cell-based, human
Method: The microfluidic devices are left overnight at 37° C. in a 5% carbon dioxide (“CO2”) incubator, after which they are rinsed with Endothelial Growth Medium-2 (“EGM-2”) from Lonza. Human Umbilical Vein Endothelial Cells (“HUVEC”) from a mixed donor, by Lonza, are kept in culture and suspended at 12.5 million cells/milliliter (“mL”) in EGM-2, after confluence. The suspension is introduced into the collagen-coated microchannels, after which the microfluidic devices are incubated upside down for 20 minutes. A fresh HUVEC suspension is then introduced in the microchannels, after which the microfluidic devices are incubated for eight hours to promote cell attachment across the channel. The microchannels are, then, rinsed with EGM-2, sometimes containing a freshly prepared solution of tumor necrosis factor (“TNF-α”), which is a recombinant from E. coli from Sigma. Antibodies against intercellular adhesion molecule-1 (“ICAM-1”) and vascular adhesion molecule-1 (“VCAM-1”), tissue factor (from Santa Cruz), VWF (from Abcam) and VE-Cadherin (from Santa Cruz) were perfused into the microfluidic devices after fixing the endothelium with 2% paraformaldehyde for ten minutes, incubating the endothelium for three hours, and counterstaining with a secondary fluorescent IgG antibody for three hours.
Multiple endothelial adhesion molecules are involved in the recruitment of blood cells and platelets in thrombosis in vivo. In previous studies, treatment of a living endothelium cultured in microfluidic channels with TNF-α results in an increase in expression of surface adhesion molecules, such as ICAM-1 and VCAM-1 within four hours after addition. To explore whether a fixed endothelium retains expression of these and other surface molecules that could potentially exacerbate thrombosis, the endothelium is first activated in the device by adding increasing doses of TNF-α, e.g., 0, 5, and 100 nanograms/millliter (“ng/ml”), for approximately 18 hours. The endothelium cells are fixed with 4% paraformaldehyde in phosphate-buffered saline (“PBS”) for 15 minutes at room temperature, are rinsed three times with PBS, and, then, stored in PBS at 4° C. in a humid environment.
Human umbilical vein endothelial cells (HUVECs, Lonza) were cultured in Endothelial Growth Medium-2 (EGM-2, Lonza) and used between passages 3 and 7. Before seeding HUVECs in the devices, the microchannels were pre-treated with 1% (3-aminopropyl)-trimethoxysilane in phosphate-buffered saline (PBS) for 10 min, flushed sequentially with 70% ethanol in water and 100% ethanol, and then incubated at 80° C. for two hours before rat tail collagen I (100 μg/ml in PBS; BD Biosciences) was introduced in the channels. Some of the devices were used with the collagen coating alone (without cells) after incubation overnight at 37° C. and flushing of the channels with EGM-2. In other studies for comparison, HUVECs (12.5×10^6 cells/ml) were introduced into the collagen-coated channels and incubated for 20 min at 37° C. to promote cell attachment before a second similar HUVEC suspension was then introduced and the devices were incubated upside down for an additional 20 min to seed the cells on the ceiling and walls of the microfluidic channels. Channels were then flushed with EGM-2 and the devices were incubated at 37° C. under 5% CO2 for 24 hours to promote HUVEC monolayer formation on all exposed surfaces of the microchannel. In some cases, the medium was supplemented with one or more inflammatory cytokines (e.g., 5 or 100 ng/ml TNF-α (Sigma)) to activate the HUVEC monolayer. Fluorescence microscopy was performed on endothelium that was fixed with 4% formaldehyde (Sigma) and stained with antibodies against TF (Santa Cruz), vWF (Abeam), VE-Cadherin (Santa Cruz), followed by counterstaining with phalloidin and DAPI (Invitrogen).

HUVECs and platelets = assay: Platelet adhesion and dynamics on TNF-α stimulated endothelium (living or fixed), whole blood perfusion; type: cell-based, human; conditions: TNF-α 5 ng/ml before fixation; kept 1 day or 5 days; versus no TNF-α
[1] = TNF-α before fixation, versus untreated

tumor necrosis factor-α [TNF-α]
ICAM-1 expression on living endothelium (HUVECs; HUVECs stimulated with various doses of TNF-α): increased with increase in TNF concentration; also recorded: dose-dependent activation of ICAM-1; also recorded: dose-dependent surface expression of adhesion molecule ICAM-1; also recorded: increased in a dose-dependent manner | tissue factor (TF) expression on living endothelium (HUVECs; HUVECs, TNF-α 5 or 100 ng/ml): increase in the endothelial expression | von Willebrand Factor (vWF) expression on living endothelium (HUVECs; HUVECs, TNF-α 5 or 100 ng/ml): increase in the endothelial expression | VCAM-1 immunofluorescence on fixed endothelium (HUVECs; TNF-α 0, 5, 100 ng/ml for about 18 hours before fixation): dose-dependent increase | ICAM-1 immunofluorescence on fixed endothelium (HUVECs; TNF-α 0, 5, 100 ng/ml for about 18 hours before fixation, normalized to untreated): dose-dependent increase | VWF immunofluorescence on fixed endothelium (HUVECs; [1]): dose-dependent increase; also recorded: higher levels | tissue factor immunofluorescence on fixed endothelium (HUVECs; [1]): dose-dependent increase; also recorded: higher levels | platelet adhesion rate on fixed HUVECs (HUVECs and platelets): significantly higher
